Experiment [1] has as its target T1, catalytic domain of human Bub1 (amino acids 704-1085) (Homo sapiens, UniProt O43683).
T1 construct: catalytic domain of human Bub1 (amino acids 704-1085); His6 (N); made in house; host or cells: Hi5 insect cells
As to the kind of experiment: Bub1 kinase assay (TR-FRET). In kind it is biochemical. A digest of the protocol: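 Compounds from 2 mM DMSO stocks, serially diluted 1:3.4, incubated with enzyme at 22° C for 60 min. Stopped with EDTA, then 1 h with streptavidin-XL665, anti-phosphoserine antibody and Eu-labelled anti-mouse IgG. Phosphorylated biotin-peptide read by TR-FRET; IC50 by 4-parameter logistic fit.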
On the technique in general: TR-FRET usually uses a lanthanide donor and a delayed reading to cut background.

Experiment [2] deals with HeLa human cervical tumor cells. As to the kind of experiment: Proliferation assay (HeLa+Paclitaxel).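 Further: compounds at 0.001-10 µM added 4 h after paclitaxel, 92 h exposure, absorbance normalized to zero-point plate (0%) and untreated cells (100%), IC50 from 4-parameter fit.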 The note with it: read-out: Biological Assay 3: HeLa + Paclitaxel IC50, 3 nM paclitaxel, crystal violet.
Method: Proliferation Assay (HeLa+Paclitaxel):
Cultivated HeLa human cervical tumor cells (DSMZ ACC-57) were plated at a density of 3000 cells/well in a 96-well multititer plate in 200 μL of growth medium supplemented 10% fetal calf serum. After 24 hours, the cells of one plate (zero-point plate) were stained with crystal violet (see below). The medium of the other plates was supplemented with 3 nM of paclitaxel (Sigma-Aldrich) and the cells were incubated at 37° C. After 4 hours the test substances were added in various concentrations (0 μM, as well as in the range of 0.001-10 μM; the final concentration of the solvent dimethyl sulfoxide was adjusted to 0.1%) using a Hewlett-Packard HP D300 Digital Dispenser. The cells were incubated for another 92 hours at 37° C. in the presence of test substances. Cell proliferation was determined by staining the cells with crystal violet: the cells were fixed by adding 20 μL/measuring point of an 11% glutaric aldehyde solution for 15 minutes at room temperature. After three washing cycles of the fixed cells with water, the plates were dried at room temperature. The cells were stained by adding 100 μL/measuring point of a 0.1% crystal violet solution (pH 3.0). After three washing cycles of the stained cells with water, the plates were dried at room temperature. The dye was dissolved by adding 100 μL/measuring point of a 10% acetic acid solution. […] The change of cell number, in percent, was calculated by normalization of the measured values to the absorbtion values of the zero-point plate (=0%) and the absorbtion of the untreated (0 μm) cells (=100%). The IC50 values were determined by means of a 4 parameter fit.
Experiment [3] concerns HeLa. As to the kind of experiment: Proliferation assay (HeLa cell line).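 Further: crystal violet staining of cell number, scaled between a plate stained before dosing (0%) and cells left untreated (100%), compounds tested at 0.001-10 µM, IC50 via 4-parameter fit.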 The note with it: Homo sapiens, 96 h, read-out: Biological Assay 2: Proliferation assay (HeLa cell line) median IC50.
Where [4] appears, read: Biological Assay 1: Bub1 kinase assay median IC50, 10 μM ATP.
Where [5] appears, read: 10 μM ATP, read-out: Biological Assay 1: Bub1 kinase assay median IC50.

Read-outs that look alike come from different tables or passages of the source.

T1 sequence (O43683 704-1085): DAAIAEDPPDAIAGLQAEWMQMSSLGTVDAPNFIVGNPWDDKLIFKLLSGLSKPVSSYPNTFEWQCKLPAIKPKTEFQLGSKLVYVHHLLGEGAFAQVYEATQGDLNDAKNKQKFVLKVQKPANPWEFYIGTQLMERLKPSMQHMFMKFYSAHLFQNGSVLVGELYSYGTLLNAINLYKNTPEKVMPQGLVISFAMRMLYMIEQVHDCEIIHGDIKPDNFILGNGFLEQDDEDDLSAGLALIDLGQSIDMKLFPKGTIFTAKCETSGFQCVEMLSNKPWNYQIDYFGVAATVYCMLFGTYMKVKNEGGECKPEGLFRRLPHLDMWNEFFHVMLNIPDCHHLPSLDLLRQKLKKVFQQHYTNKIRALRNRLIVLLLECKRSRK

Consider `COCCOc1cc(F)c(Cn2nc(-c3nc(CN4CCOCC4)cc(Nc4ccncc4OC)n3)c3ccccc32)c(F)c1` [Example 2-12-42, 2-{1-[2,6-difluoro-4-(2-methoxyethoxy)benzyl]-1H-indazol-3-yl}-N-(3-methoxypyridin-4-yl)-6-(morpholin-4-ylmethyl)pyrimidin-4-amine], for which the IC50 in experiment [1] (setting [4]) came out at 0.016 µM; in experiment [2] it was 0.24 µM; in experiment [3], 3.4 µM.

As to `CCOc1cc(F)c(Cn2nc(-c3nc4c(c(Nc5cc(Cl)ncn5)n3)CCC4)c3ccccc32)c(F)c1` [Example 2-12-32, N-(6-chloropyrimidin-4-yl)-2-[1-(4-ethoxy-2,6-difluorobenzyl)-1H-indazol-3-yl]-6,7-dihydro-5H-cyclopenta[d]pyrimidin-4-amine], the IC50 in experiment [1] (setting [4]) is 0.33 µM; in experiment [2] it was 0.53 µM; in experiment [3], > 10 µM.

Take `CCOc1cc(F)c(Cn2nc(-c3nc4c(c(Nc5ccncc5C(F)(F)F)n3)CCC4)c3ccccc32)c(F)c1` [Example 2-14-3, 2-[1-(4-ethoxy-2,6-difluorobenzyl)-1H-indazol-3-yl]-N-[3-(trifluoromethyl)pyridin-4-yl]-6,7-dihydro-5H-cyclopenta[d]pyrimidin-4-amine]: the IC50 was 0.0052 µM in experiment [1] (setting [5]), 0.25 µM in experiment [2] and 3 µM in experiment [3].

As to `Cc1cc(Nc2ccncc2OC(F)(F)F)nc(-c2nn(Cc3c(F)cc(OCCO)cc3F)c3ccccc23)n1` [Example 2-6-35, 2-(3,5-difluoro-4-{[3-(4-methyl-6-{[3-(trifluoromethoxy)pyridin-4-yl]amino}pyrimidin-2-yl)-1H-indazol-1-yl]methyl}phenoxy)ethanol], the IC50 in experiment [1] (setting [5]) was 0.0054 µM; in experiment [2], 1.3 µM; in experiment [3], 2.3 µM.

As for `CCOc1cc(F)c(Cn2nc(-c3nc(Nc4ccnc(C)n4)cc(C4CCCO4)n3)c3ccccc32)c(F)c1` (racemic) [Example 2-12-87, 2-[1-(4-ethoxy-2,6-difluorobenzyl)-1H-indazol-3-yl]-N-(2-methylpyrimidin-4-yl)-6-[(2rac)-tetrahydrofuran-2-yl]pyrimidin-4-amine], the IC50 in experiment [1] (setting [4]) came to 0.037 µM; in experiment [2], 1.5 µM; in experiment [3], 9.3 µM.

Turning to `Cc1cnccc1Nc1nc(-c2nn(Cc3c(F)cc(OCCO)cc3F)c3ccccc23)nc2c1CCC2` [Example 2-4-8, 2-{3,5-difluoro-4-[(3-{4-[(3-methylpyridin-4-yl)amino]-6,7-dihydro-5H-cyclopenta[d]pyrimidin-2-yl}-1H-indazol-1-yl)methyl]phenoxy}ethanol], the IC50 in experiment [1] (setting [4]) stood at 0.005 µM; in experiment [2], 0.37 µM; in experiment [3], 1.8 µM.

For the compound `COCCOc1cc(F)c(Cn2nc(-c3nc4c(c(Nc5ccncc5OC)n3)CCC4)c3ccccc32)c(F)c1` [Example 2-12-31, 2-{1-[2,6-difluoro-4-(2-methoxyethoxy)benzyl]-1H-indazol-3-yl}-N-(3-methoxypyridin-4-yl)-6,7-dihydro-5H-cyclopenta[d]pyrimidin-4-amine], the IC50 in experiment [1] (setting [4]) is 0.013 µM; in experiment [2], 0.08 µM; in experiment [3], 3.9 µM.

On to `CCOc1cc(F)c(Cn2nc(-c3nc4c(c(Nc5cc(C)nc(C)n5)n3)CCC4)c3ccccc32)c(F)c1` [Example 2-12-27, N-(2,6-dimethylpyrimidin-4-yl)-2-[1-(4-ethoxy-2,6-difluorobenzyl)-1H-indazol-3-yl]-6,7-dihydro-5H-cyclopenta[d]pyrimidin-4-amine], for which the IC50 was 0.61 µM in experiment [1] (setting [4]), 0.21 µM in experiment [2] and 3.1 µM in experiment [3].

With `CCOc1cc(F)c(Cn2nc(-c3nc(CN4CCOCC4)cc(Nc4cc(O)ncn4)n3)c3ccccc32)c(F)c1` [Example 2-12-45, 6-({2-[1-(4-ethoxy-2,6-difluorobenzyl)-1H-indazol-3-yl]-6-(morpholin-4-ylmethyl)pyrimidin-4-yl}amino)pyrimidin-4-ol], the IC50 in experiment [1] (setting [4]) is 0.76 µM; in experiment [2], 0.38 µM; in experiment [3], > 10 µM.

Take `CCOc1cc(F)c(Cn2nc(-c3nc(Nc4ccncn4)cc(-c4nccs4)n3)c3ccccc32)c(F)c1` [Example 2-12-95, 2-[1-(4-ethoxy-2,6-difluorobenzyl)-1H-indazol-3-yl]-N-(pyrimidin-4-yl)-6-(1,3-thiazol-2-yl)pyrimidin-4-amine]: the IC50 in experiment [1] (setting [4]) is 0.026 µM; in experiment [2], 9.8 µM; in experiment [3] it was > 10 µM.

With `COCCOc1cc(F)c(Cn2nc(-c3nc(CN4CCOCC4)cc(Nc4ccncc4C)n3)c3ccccc32)c(F)c1` [Example 2-12-41, 2-{1-[2,6-difluoro-4-(2-methoxyethoxy)benzyl]-1H-indazol-3-yl}-N-(3-methylpyridin-4-yl)-6-(morpholin-4-ylmethyl)pyrimidin-4-amine], the values for the IC50 in experiment [1] (setting [4]), in experiment [2] and in experiment [3] were 0.0088 µM, 0.12 µM and 3.5 µM, respectively.

On to `COCCOc1cc(F)c(Cn2nc(-c3nc4c(c(Nc5ccncc5Cl)n3)CCC4)c3ccccc32)c(F)c1` [Example 2-12-30, N-(3-chloropyridin-4-yl)-2-{1-[2,6-difluoro-4-(2-methoxyethoxy)benzyl]-1H-indazol-3-yl}-6,7-dihydro-5H-cyclopenta[d]pyrimidin-4-amine], for which the IC50 in experiment [1] (setting [4]) was 0.06 µM; in experiment [2], 0.14 µM; in experiment [3] it was 8.6 µM.

Regarding `Cc1nccc(Nc2nc(-c3nn(Cc4c(F)cc(OCCO)cc4F)c4ccccc34)nc3c2CN(CC(F)(F)F)C3)n1` [Example 2-6-39, 2-{3,5-difluoro-4-[(3-{4-[(2-methylpyrimidin-4-yl)amino]-6-(2,2,2-trifluoroethyl)-6,7-dihydro-5H-pyrrolo[3,4-d]pyrimidin-2-yl}-1H-indazol-1-yl)methyl]phenoxy}ethanol], the IC50 amounted to 0.055 µM in experiment [1] (setting [4]), 1.5 µM in experiment [2] and 7 µM in experiment [3].

On to `CCOc1cc(F)c(Cn2nc(-c3nc(Nc4ccncn4)cc(C4CCOCC4)n3)c3ccccc32)c(F)c1` [Example 2-12-92, 2-[1-(4-ethoxy-2,6-difluorobenzyl)-1H-indazol-3-yl]-N-(pyrimidin-4-yl)-6-(tetrahydro-2H-pyran-4-yl)pyrimidin-4-amine], for which the IC50 is 0.02 µM in experiment [1] (setting [4]), 0.28 µM in experiment [2] and 2.7 µM in experiment [3].

`CCOc1cc(F)c(Cn2nc(-c3nc(C)cc(Nc4ccncc4OC(F)(F)F)n3)c3ccccc32)c(F)c1` [Example 2-12-79, 2-[1-(4-ethoxy-2,6-difluorobenzyl)-1H-indazol-3-yl]-6-methyl-N-[3-(trifluoromethoxy)pyr-idin-4-yl]pyrimidin-4-amine]: the IC50 in experiment [1] (setting [5]) was 0.0056 µM; in experiment [2] it was 1.9 µM; in experiment [3] it was > 10 µM.

Consider `CCOc1cc(F)c(Cn2nc(-c3nc(Nc4ccncc4OC)cc(-c4ccn(C)n4)n3)c3ccccc32)c(F)c1` [Example 2-12-94, 2-[1-(4-ethoxy-2,6-difluorobenzyl)-1H-indazol-3-yl]-N-(3-methoxypyridin-4-yl)-6-(1-methyl-1H-pyrazol-3-yl)pyrimidin-4-amine], for which the IC50 was determined as 0.0097 µM in experiment [1] (setting [4]), 2.3 µM in experiment [2] and 3.9 µM in experiment [3].

`CCOc1cc(F)c(Cn2nc(-c3nc(Nc4ccncn4)cc(C4CCCO4)n3)c3ccccc32)c(F)c1` (racemic) [Example 2-12-86, 2-[1-(4-ethoxy-2,6-difluorobenzyl)-1H-indazol-3-yl]-N-(pyrimidin-4-yl)-6-[(2rac)-tetrahydrofuran-2-yl]pyrimidin-4-amine]: the IC50 was 0.0075 µM in experiment [1] (setting [4]), 1.4 µM in experiment [2] and 3.9 µM in experiment [3].

In the case of `CCOc1cc(F)c(Cn2nc(-c3ncc(C4CN(CC(F)(F)F)C4)c(Nc4ccncc4)n3)c3ccccc32)c(F)c1` [Example 2-11-2, 2-[1-(4-ethoxy-2,6-difluorobenzyl)-1H-indazol-3-yl]-N-(pyridin-4-yl)-5-[1-(2,2,2-trifluoroeth-yl)azetidin-3-yl]pyrimidin-4-amine], the IC50 in experiment [1] (setting [4]) was determined as 0.02 µM; in experiment [2], 0.12 µM; in experiment [3], 3.4 µM.

Regarding `COCCOc1cc(F)c(Cn2nc(-c3nc(CN4CCOCC4)cc(Nc4ccncc4)n3)c3ccccc32)c(F)c1` [Example 2-12-43, 2-{1-[2,6-difluoro-4-(2-methoxyethoxy)benzyl]-1H-indazol-3-yl}-6-(morpholin-4-ylmethyl)-N-(pyridin-4-yl)pyrimidin-4-amine], the IC50 is 0.0096 µM in experiment [1] (setting [4]), 0.25 µM in experiment [2] and 3.6 µM in experiment [3].

For the compound `CCOc1cc(F)c(Cn2nc(-c3nc4c(c(Nc5ccnc(S(C)(=O)=O)c5)n3)CCC4)c3ccccc32)c(F)c1` [Example 2-19-6, 2-[1-(4-ethoxy-2,6-difluorobenzyl)-1H-indazol-3-yl]-N-[2-(methylsulfonyl)pyridin-4-yl]-6,7-dihydro-5H-cyclopenta[d]pyrimidin-4-amine], the results for the IC50 in experiment [2] and in experiment [3] were 0.48 µM and > 10 µM, respectively.

In the case of `CCOc1cc(F)c(Cn2nc(-c3ncc(OCC[S+](C)[O-])c(Nc4ccncc4)n3)c3ccccc32)c(F)c1` (stereo not shown) [Example 3-2-1, 2-[1-(4-ethoxy-2,6-difluorobenzyl)-1H-indazol-3-yl]-5-[2-(methylsulfinyl)ethoxy]-N-(pyridin-4-yl)pyrimidin-4-amine, reference compound], the IC50 in experiment [2] came out at 0.41 µM; in experiment [3] it was 4.5 µM.

The values above are taken from patent US20170275270A1, “BENZYL SUBSTITUTED INDAZOLES” (Bayer Pharma Aktiengesellschaft, priority 2014, published 2017).
